# According to article PMC12461339, “Benzoylselenoureas: A Novel Dual-Action Inhibitor Targeting Fungal Growth and Urease Activity in Cryptococcus neoformans” (ACS Omega, 2025):
# Where “and” joins values, the source holds several entries; their conditions need not be identical. Equal entries are not always repeated. Where two headings read alike, the source gives them in different places.
# Columns and labels:
# [1] = test system: C. neoformans H99; experiment: Minimum fungicidal concentration by subculturing after MIC reading; type: cell-based; conditions: Cryptococcus neoformans
# Protocol: After MIC readings, the MFC values were determined by subculturing, at 35 °C for 48 h, of all concentrations that inhibited the fungal growth; and then MFC was defined as the lowest concentration of the compound capable of reducing ≥99% viability of the initial fungal inoculum. ,
# [2] = test system: C. neoformans H99; experiment: Broth microdilution antifungal assay (MIC) in RPMI or urea medium; type: cell-based; conditions: Cryptococcus neoformans
# Protocol: (§1) C. neoformans H99 (or ATCC 208821), a standard strain, was used to evaluate the antifungal activity of BSU1-BSU11 and BTU1-BTU11 compounds using the broth microdilution method. The assay was performed in two different culture media: the standard medium RPMI 1640 buffered with […] (RMPI), and the Christensen broth (urea medium: 1 g/L peptone, 1 g/L dextrose, 5 g/L sodium chloride, 2 g/L potassium phosphate, 20 g/L urea, 12 mg/L phenol red, pH 7.0). The compounds were dissolved in dimethyl sulfoxide (DMSO) and diluted in both media, obtaining final concentrations from 0.03 to 128 mg/L in a 96-well plate and final DMSO concentration below 0.5%, considered nontoxic. For assay, yeasts were distributed in each well to obtain a final inoculum of 0.5–2.5 × 10^3 CFU/mL, and the plate was incubated at 35 °C for 48 h.
# (§2) The MIC values were determined in both media and were defined as the lowest concentrations of BSU1-BSU11 and BTU1-BTU11 that inhibited 50% of fungal growth visually compared with untreated yeasts (growth control). In addition, the urease activity was indicated by medium color change from orange to pink due to ammonia production and the MICure was defined as the lowest concentration that inhibited the urease activity by visual inspection in urea medium with no color changes. For both assays, two controls were included: untreated yeast group for observation of fungal growth pattern or intracellular urease activity, and wells containing only medium for assay sterility control.
# [3] = molecular target: T1, yeast urease activity (Cryptococcus neoformans, UniProt O13465); experiment: Inhibition of yeast urease activity in urea (Christensen) medium, colour change (MICure); type: cell-based
# T1 construct: endogenous in cells; host or cells: Cryptococcus neoformans H99 (ATCC 208821) yeasts in Christensen urea broth
# T1 sequence (O13465 whole entry): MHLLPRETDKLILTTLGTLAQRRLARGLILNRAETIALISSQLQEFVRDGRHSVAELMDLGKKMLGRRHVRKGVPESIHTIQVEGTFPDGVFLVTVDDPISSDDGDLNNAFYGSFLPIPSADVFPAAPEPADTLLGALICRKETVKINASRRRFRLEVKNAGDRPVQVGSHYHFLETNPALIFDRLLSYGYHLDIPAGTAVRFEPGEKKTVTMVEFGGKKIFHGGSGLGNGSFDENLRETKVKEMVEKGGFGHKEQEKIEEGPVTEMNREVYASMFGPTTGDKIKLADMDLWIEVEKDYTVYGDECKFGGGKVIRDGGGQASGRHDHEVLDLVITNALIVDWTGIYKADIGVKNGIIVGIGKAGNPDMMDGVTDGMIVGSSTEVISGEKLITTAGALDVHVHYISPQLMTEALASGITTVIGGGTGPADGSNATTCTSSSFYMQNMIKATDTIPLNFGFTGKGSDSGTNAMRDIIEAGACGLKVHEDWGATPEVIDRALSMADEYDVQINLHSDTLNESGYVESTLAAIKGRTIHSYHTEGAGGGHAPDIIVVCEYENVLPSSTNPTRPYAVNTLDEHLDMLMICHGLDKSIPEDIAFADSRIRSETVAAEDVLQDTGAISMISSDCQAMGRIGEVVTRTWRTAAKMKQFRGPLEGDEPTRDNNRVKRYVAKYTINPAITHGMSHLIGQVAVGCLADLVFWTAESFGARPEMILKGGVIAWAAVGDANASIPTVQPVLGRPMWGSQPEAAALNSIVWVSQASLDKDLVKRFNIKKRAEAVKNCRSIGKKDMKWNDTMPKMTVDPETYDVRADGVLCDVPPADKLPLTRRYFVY
# Protocol: The inhibitory activity against yeast urease was assessed using Christensen’s medium, which contains urea to induce URE1 gene expression. […] Even in the presence of fungal growth, inhibition of urease activity was evidenced by the absence of medium color change, indicating suppressed ammonia production.
# as §1, §2
# [4] = molecular target: T2, C. neoformans urease (Cryptococcus neoformans, UniProt O13465); experiment: Urease activity in crude protein extract, indophenol method; type: biochemical; conditions: ureIC50, BSU series
# T2 construct: endogenous in cells; host or cells: Cryptococcus neoformans H99, lysed by sonication; dialysed and lyophilised soluble fraction (total protein)
# T2 sequence (O13465 whole entry): as above
# Protocol: C. neoformans H99 yeasts were cultivated in 100 mL of Christensen broth for 72 h at 35 °C by shaking at 200 rpm for the obtention of urease as previously described. Briefly, the yeasts were ruptured using a lysis buffer (40 mM Tris-HCl, 20 mM dithiothreitol, 4% Triton X-100, 1 mM ethylenediaminetetraacetic acid, 2 mM phenylmethylsulfonyl fluoride, protease inhibitor cocktail) and an ultrasonic sonicator. After centrifugation, the soluble fraction was dialyzed in a dialysis membrane submerged in 10 mM sodium phosphate buffer, pH 7.0; the sample was lyophilized and stored at −20 °C. Before the assay, the sample was resuspended in 1 mL of sodium phosphate buffer (10 mM, pH 7.0), and the total protein was quantified by the Bradford method.
# The urease activity was determined by the indophenol method. In a 96-well microplate, 10 μL of 100 mM urea was added to 45 μL of total protein and 45 μL of BSU1-BSU11 (concentrations of 0.06–1000 μg/L) in phosphate buffer. The reaction was maintained for 10 min under shaking at 600 rpm, at room temperature. Then, 45 μL of solution A (1% phenol; 0.005% sodium nitroprusside) and 70 μL of solution B (0.5% sodium hydroxide; 0.1% sodium hypochlorite) were immediately added to the wells in the dark and incubated for 5 min at 50 °C under shaking at 600 rpm. Urease activity was quantified by measuring absorbance at 670 nm. The inhibitory concentration capable of inhibiting 50% of urease activity (ureIC50) was determined by nonlinear regression calculation using the GraphPad Prism 5.0 software.
# [5] = H99, BTU series, after assay in RPMI medium, read-out: MFC
# [6] = H99, Table S1, RPMI medium line, read-out: MFC
# [7] = H99, Table S1, urea medium line, read-out: MFC
# [8] = H99, BTU series, 50% inhibition of fungal growth, RPMI medium, read-out: MIC RPMI
# [9] = H99, BTU series, 50% inhibition of fungal growth, urea medium, read-out: MIC urea
# [10] = H99, Table S1, RPMI medium, C. neoformans H99, read-out: MIC
# [11] = H99, Table S1, urea medium, C. neoformans H99, read-out: MIC
# [12] = BTU series, 100% inhibition of yeast urease activity in urea medium
# [13] = Table S1, urea medium, 100% inhibition of yeast urease activity
# [14] = BSU series, 100% inhibition of yeast urease activity in urea medium
# [15] = H99, BSU series, after assay in RPMI medium, ≥99% reduction of viability
# [16] = H99, Table S1, RPMI medium line
# [17] = H99, Table S1, urea medium line
# [18] = H99, 48 h, read-out: MIC RPMI, BSU series, 50% inhibition of fungal growth, RPMI medium, 35 °C, 48 h
# [19] = H99, 48 h, read-out: MIC urea, BSU series, 50% inhibition of fungal growth, urea medium, 35 °C, 48 h
# [20] = H99, Table S1, RPMI medium, C. neoformans H99
# [21] = H99, Table S1, urea medium, C. neoformans H99
Compound,"MFC [1, 5] [µg/mL]","MFC [1, 6] [µg/mL]","MFC [1, 7] [µg/mL]","MIC [2, 8] [µg/mL]","MIC [2, 9] [µg/mL]","MIC [2, 10] [µg/mL]","MIC [2, 11] [µg/mL]","MICURE [3, 12] [mg/L]","MICURE [3, 13] [mg/L]","MICURE [3, 14] [mg/L]",IC50 [4],"MFC [1, 16] [µg/mL]","MFC [1, 17] [µg/mL]","MIC [2, 20] [µg/mL]","MIC [2, 21] [µg/mL]",further results
Cc1ccc(NC(=S)NC(=O)c2ccccc2)cc1 [BTU2],> 128,> 128,> 128,> 128,32,> 128,32,<0.25,≤ 0.25,,,,,,,
O=C(NC(=[Se])Nc1ccccc1)c1ccccc1 [BSU1],,2,0.12,,,2,0.06,,0.06,0.06,4.88 nM,,,,,"MFC ([1]; H99, BSU series, after assay in RPMI medium, ≥99% reduction of viability, read-out: MFC): 2 µg/mL; MIC ([2]; H99, 48 h, BSU series, 50% inhibition of fungal growth, RPMI medium, 35 °C, 48 h, read-out: MIC RPMI): 2 µg/mL; MIC ([2]; H99, 48 h, BSU series, 50% inhibition of fungal growth, urea medium, 35 °C, 48 h, read-out: MIC urea): 0.06 µg/mL"
O=C(NC(=S)Nc1ccccc1)c1ccccc1 [BTU1],> 128,> 128,128,> 128,32,> 128,32,32,32,,,,,,,
O=C(NC(=[Se])Nc1ccc(Cl)cc1)c1ccccc1 [BSU6],,,,,,,,,8,0.25,3.02 nM,> 16,16,> 16,8,"MFC [1, 15]: 16 µg/mL; MIC [2, 18]: 16 µg/mL; MIC [2, 19]: 0.5 µg/mL"
CC(C)(C)c1ccc(NC(=S)NC(=O)c2ccccc2)cc1 [BTU3],> 128,> 128,128,8,1,8,1,0.5,0.5,,,,,,,
COc1cccc(NC(=S)NC(=O)c2ccccc2)c1 [BTU5],> 128,> 128,> 128,32,4,> 128,4,4,≤ 0.25,,,,,,,
O=C(NC(=[Se])Nc1ccc(Br)cc1)c1ccccc1 [BSU8],,,,,,,,,0.5,8,4.04 nM and 4.03 nM,8,0.5,8,0.5,"MFC [1, 15]: > 128 µg/mL; MIC [2, 18]: 128 µg/mL; MIC [2, 19]: 8 µg/mL"
O=C(NC(=S)Nc1ccccc1[N+](=O)[O-])c1ccccc1 [BTU10],,,,,,,,>128,> 128,,,> 128,> 128,> 128,> 128,"MFC ([1]; H99, BTU series, after assay in RPMI medium): > 128 µg/mL; MIC ([2]; H99, read-out: MIC RPMI, BTU series, 50% inhibition of fungal growth, RPMI medium): > 128 µg/mL; MIC ([2]; H99, read-out: MIC urea, BTU series, 50% inhibition of fungal growth, urea medium): > 128 µg/mL"
O=C(NC(=S)Nc1ccc(Cl)cc1)c1ccccc1 [BTU6],> 128,> 128,128,> 128,1,> 128,32,<0.25,≤ 0.25,,,,,,,
O=C(NC(=S)Nc1cccc(Br)c1)c1ccccc1 [BTU9],> 128,> 128,32,> 128,32,32,4,2,4,,,,,,,
